{"source": "BindingDB's records for patent US20250270173", "about": "(Gilgamesh Pharmaceuticals, 2025)", "target": "5-hydroxytryptamine receptor 2A (Homo sapiens, UniProt P28223)", "sequence (P28223 whole entry)": "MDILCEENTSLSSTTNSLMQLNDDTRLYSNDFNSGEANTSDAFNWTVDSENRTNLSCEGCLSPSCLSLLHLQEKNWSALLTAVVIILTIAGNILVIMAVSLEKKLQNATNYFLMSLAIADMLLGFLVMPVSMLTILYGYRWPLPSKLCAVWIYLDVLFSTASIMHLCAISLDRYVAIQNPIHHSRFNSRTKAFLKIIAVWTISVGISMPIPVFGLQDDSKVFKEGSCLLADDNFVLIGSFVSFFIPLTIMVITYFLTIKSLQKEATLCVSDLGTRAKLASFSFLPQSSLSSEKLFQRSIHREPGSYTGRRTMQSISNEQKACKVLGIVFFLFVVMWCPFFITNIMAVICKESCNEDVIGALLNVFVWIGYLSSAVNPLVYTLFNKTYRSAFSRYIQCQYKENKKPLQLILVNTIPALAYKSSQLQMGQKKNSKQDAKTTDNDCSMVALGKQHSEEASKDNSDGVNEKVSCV", "test": "5-HT2A Receptor Binding Assay"}
{"compound": "COc1cc(C)c(OC)nc1CCN", "note": "[US20250270173, Compound 8]", "values": [{"measurement": "Ki", "value": 1120, "unit": "nM"}]}
{"compound": "COc1cc(Br)c(OC)nc1CC(C)N", "note": "(configuration not stated) [US20250270173, Compound 6]", "values": [{"measurement": "Ki", "value": 168, "unit": "nM"}]}
{"compound": "CCCCCc1nc(OC)c(CC(N)CC)nc1OC", "note": "(configuration not stated) [US20250270173, Compound 12]", "values": [{"measurement": "Ki", "value": 693, "unit": "nM"}]}
{"compound": "CCSc1cc(OC)c(CC(N)CC)nc1OC", "note": "(configuration not stated) [US20250270173, Compound 24]", "values": [{"measurement": "Ki", "value": 649, "unit": "nM"}]}
{"compound": "CCSc1cc(OC)c(CCN)nc1OC", "note": "[US20250270173, Compound 22]", "values": [{"measurement": "Ki", "value": 82.8, "unit": "nM"}]}
{"compound": "CCCc1cc(OC)c(CC(N)CC)nc1OC", "note": "(configuration not stated) [US20250270173, Compound 37]", "values": [{"measurement": "Ki", "value": 106, "unit": "nM"}]}
{"compound": "CCSc1cc(OC)c(CC(C)N)nc1OC", "note": "(configuration not stated) [US20250270173, Compound 23]", "values": [{"measurement": "Ki", "value": 344, "unit": "nM"}]}
{"compound": "COc1cc(C)c(OC)nc1CC(C)N", "note": "(configuration not stated) [US20250270173, Compound 5]", "values": [{"measurement": "Ki", "value": 1170, "unit": "nM"}]}
{"compound": "CCCCCCc1cc(OC)c(CCN)nc1OC", "note": "[US20250270173, Compound 29]", "values": [{"measurement": "Ki", "value": 0.91, "unit": "nM"}]}
{"compound": "COc1cc(Br)c(OC)nc1CCN", "note": "[US20250270173, Compound 9]", "values": [{"measurement": "Ki", "value": 99.2, "unit": "nM"}]}
{"compound": "CCCCCc1nc(OC)c(CC(N)CC)cc1OC", "note": "(configuration not stated) [US20250270173, Compound 11]", "values": [{"measurement": "Ki", "value": 273, "unit": "nM"}]}
{"compound": "COc1cc(C2CC2)c(OC)nc1CCN", "note": "[US20250270173, Compound 26]", "values": [{"measurement": "Ki", "value": 150, "unit": "nM"}]}
